In patent publication US11932609B1 (priority 2023, dated 2024) one finds melting point data, which are given here for eight compounds.

Turning to `CCOC(=O)C1=C(C)NC(Nc2ccccc2)=NC1c1ccc(F)cc1` (centres unmarked) [DHPM-KNV1, Ethyl 4-(4-fluorophenyl)-6-methyl-2-(phenylamino)-1,4-dihydropyrimidine-5-carboxylate], the melting point (usually the temperature of the solid-liquid transition) lay within 92 to 93 °C.

For the compound `CCOC(=O)C1=C(C)NC(Nc2ccc(Br)cc2)=NC1c1ccc(F)cc1` (centres unmarked) [DHPM-KNV2, Ethyl 2-((4-bromophenyl)amino)-4-(4-fluorophenyl)-6-methyl-1,4-dihydropyrimidine-5-carboxylate], the melting point was in the range of 120 to 121 °C.

For the compound `CCOC(=O)C1=C(C)NC(Nc2ccc(Cl)cc2)=NC1c1ccc(F)cc1` (centres unmarked) [DHPM-KNV3, Ethyl 2-((4-chlorophenyl)amino)-4-(4-fluorophenyl)-6-methyl-1,4-dihydropyrimidine-5-carboxylate], the melting point was in the range of 188 to 189 °C.

Consider `CCOC(=O)C1=C(C)NC(Nc2ccc(C(C)C)cc2)=NC1c1ccc(F)cc1` (centres unmarked) [DHPM-KNV4, Ethyl 4-(4-fluorophenyl)-2-((4-isopropylphenyl)amino)-6-methyl-1,4-dihydropyrimidine-5-carboxylate], for which the melting point fell in the range of 125 to 126 °C.

For the compound `CCOC(=O)C1=C(C)NC(Nc2ccc(Cl)c(C(F)(F)F)c2)=NC1c1ccc(F)cc1` (centres unmarked) [DHPM-KNV5, Ethyl 2-((4-chloro-3-(trifluoromethyl)phenyl)amino)-4-(4-fluorophenyl)-6-methyl-1,4-dihydropyrimidine-5-carboxylate], the melting point lay in the range of 176 to 177 °C.

`CCOC(=O)C1=C(C)NC(Nc2ccc3ncsc3c2)=NC1c1ccc(F)cc1` (centres unmarked) [DHPM-KNV7, Ethyl 2-(benzo[d]thiazol-6-ylamino)-4-(4-fluorophenyl)-6-methyl-1,4-dihydropyrimidine-5-carboxylate]: the melting point was 175 to 176 °C.

The compound `CCOC(=O)C1=C(C)NC(Nc2ccccc2I)=NC1c1ccc(F)cc1` (centres unmarked) [DHPM-KNV8, Ethyl 4-(4-fluorophenyl)-2-((2-iodophenyl)amino)-6-methyl-1,4-dihydropyrimidine-5-carboxylate] displayed a melting point of 229 to 230 °C.

`CCOC(=O)C1=C(C)NC(Nc2ccc(C(F)(F)F)cc2OC)=NC1c1ccc(F)cc1` (centres unmarked) [DHPM-KNV9, Ethyl 4-(4-fluorophenyl)-2-((2-methoxy-4-(trifluoromethyl)phenyl)amino)-6-methyl-1,4-dihydropyrimidine-5-carboxylate] returned a melting point of 213 to 214 °C.
